Publication PMC7842926, “Synergistic effect and ultrastructural changes in Trypanosoma cruzi caused by isoobtusilactone A in short exposure of time” (PLoS ONE, 2021)
Where two headings read alike, the source gives them in different places. Where a SMILES comes first, the peptide text is derived from it. The star is where a group is joined. Cbz = O=C(OCc1ccccc1)*

How the values were obtained:
T. cruzi = details: cited from earlier work
[1] = system: epimastigote forms of Y strain (TcII); assay: Epimastigote cell viability assay (MTS/PMS), Y strain; type: cell-based, Trypanosoma cruzi; details: for IC50: Trypanosoma cruzi, 4 h of treatment, read-out: IC50 epimastigotes strain Y
Method: (§1) Epimastigote forms of three strains of T. cruzi, including Dm28c (TcI), CL Brener (TcVI), and Y strain (TcII), were maintained in liver infusion tryptose (LIT) medium supplemented with 10% fetal bovine serum at 28°C [16] were kindly provided by Oswaldo Cruz Institute/Fiocruz. For the experiments, exponential phase cultures were used. All assays were performed in triplicates in 96-well plates.
(§2) The absorbance of the formazan was measured at 490 nm using a microplate reader (Asys Expert Plus -Biochrom). In parallel, we determined the effect of 1% DMSO (negative control) and benznidazole (positive control) on the viability of epimastigotes and a replicate of each treatment was performed by fixing the epimastigotes with 4% paraformaldehyde prior to the addition of MTS/PMS (basal absorbance control).
(§3) The 50% cytotoxic concentration (CC50), x % inhibitory concentration (ICx = IC25, IC50, IC75, or IC90), and 50% lethal concentration (LC50) values were obtained from the percentage of inhibition/death versus log concentration of each compound, by nonlinear regression with variable slope and automatic withdrawal of outliers with ROUT coefficient (Q = 5). […] Graphpad Prism software version 7.04 was used for all regressions.

[2] = system: epimastigote forms of CL Brener (TcVI); assay: Epimastigote cell viability assay (MTS/PMS), CL Brener; type: cell-based, Trypanosoma cruzi; details: for IC50: Trypanosoma cruzi, 4 h of treatment, read-out: IC50 epimastigotes strain CL Brener
Method: as §1, §2, §3

[3] = system: amastigotes of T. cruzi (Dm28c); assay: Antiproliferative assay on intracellular amastigotes in Vero host cells; type: cell-based, Trypanosoma cruzi; details: for IC50: Trypanosoma cruzi, Vero, 24 hours of treatment, confidence interval in brackets, read-out: Amastigotes (Dm28c) IC50 (CI)
Method: To determine the antiproliferative effect of butanolides on intracellular amastigote forms (Dm28c), Vero cells were used as host cells. Vero cells were cultured in DMEM and maintained in a CO2 atmosphere at 37°C.
After 4 h of incubation for adherence and infection, the cells were washed with 1x phosphate buffered saline (PBS) and then incubated in DMEM for 20 h to allow differentiation of internalized trypomastigotes into amastigotes.
Vero cells infected with amastigotes were incubated for 4 or 24 h with the compounds (4 concentrations within the range 4–200 μM) in DMEM. After incubation, the cells were washed, fixed in methanol, stained with 4',6-Diamidino-2-phenylindole (DAPI), and photographed using Leica DMI 6000-B fluorescence microscope. The photos obtained were analyzed using the software ImageJ version 1.5 for quantification of total Vero cells and determination of the percentage of infected cells and number of amastigotes per cell. The 50% inhibitory concentration (IC50) was calculated using the infectivity index (II) described by Ceole et al.. DMSO (1%) treatment served as negative control and benznidazole treatment served as positive control.
as §3

[4] = system: epimastigotes of T. cruzi (Dm28c, TcI); assay: Epimastigote cell viability assay (MTS/PMS), Dm28c; type: cell-based, Trypanosoma cruzi; details: for IC50: Trypanosoma cruzi, read-out: Epimastigotes (Dm28c) IC50 - 4h (CI); for activity at concentrations below 50 μg/mL in epimastigotes: 72 h of treatment, Dm28c; for SI (selectivity index): Vero CC50 4 h versus epimastigote Dm28c IC50 4 h
Method: as §1
The effect of the isolated compounds on the viability of epimastigote forms of Dm28c strain was determined by MTS [3-(4,5-dimethylthiazol-2-yl)-5-(3-carboxymethoxyphenyl)-2-(4-sulfophenyl)-2H-tetrazolium bromide] with PMS (5-methyl-phenazinium methyl sulfate) colorimetric assay, as described by Nunes et al.. […]
as §2, §3

Cytotoxicity assay (MTT) = type: cell-based; details: African green monkey (Cercopithecus aethiops), Vero cells (CCL-81); for CC50 at 4 h: 4 h of treatment, read-out: Vero cells (CCL-81) CC50 - 4h (CI); for CC50 at 24 h: 24 hours of treatment, confidence interval in brackets, read-out: Vero cells (CCL-81) CC50 (CI)
Method: Vero cells (CCL-81) isolated from the kidney of the African green monkey Cercopithecus aethiops were purchased from ATCC® (Washington DC, USA). The cells were inoculated in 200 μL of Dulbecco’s modified Eagle (DMEM) medium in 96-well plates at a concentration of 2 × 10^4 cells/well and incubated at 37°C for 24 h for adherence of the cells. Six different concentrations of the compounds (12 to 900 μM for butanolides, and 200 to 1,600 μM for benznidazole) were added to the wells. After 4 or 24 h of treatment, the cells were washed and cell viability was assessed using MTT (3-(4,5-Dimethylthiazol-2-yl)-2,5-Diphenyltetrazolium Bromide) assay (2 mg/mL). After 4 h of incubation at 37°C in a CO2 atmosphere, the wells were washed and 100% DMSO was added to solubilize the formazan crystals. The absorbance was measured at 570 nm using an ELISA plate reader (Biotek Model EL-800, VT, USA). DMSO (1%) treatment served as negative control and benznidazole treatment served as positive control.
as §3

[5] = system: epimastigotes of T. cruzi (Dm28c, TcI); set-up: method as in PMID 32327956; details: 24 h of treatment; read-out: IC50 epimastigote forms of Dm28c strain; cited from earlier work
Hep G2 cells = system: Hep G2 cells; set-up: method as in PMID 22400995, PMID 18489163, PMID 17321026; details: cited from earlier work
[6] = system: trypomastigote forms of the parasite (Dm28c); assay: microbe, parasite or virus in culture; type: cell-based; details: for LC50: Trypanosoma cruzi, 4 h of treatment, read-out: LC50 against trypomastigote forms (Dm28c); for SI (selectivity index): trypomastigotes Dm28c, 4 h, Vero cells
Method: Cell-derived trypomastigotes (Dm28c) were obtained from the supernatant of infected Vero cell cultures. Vero cells (9 × 10^5 cells/mL) and trypomastigotes were seeded at a ratio of 1:10 into culture bottles (75 cm^2) containing DMEM. After 4 h of incubation, the bottles were washed to remove unadhered trypomastigotes and incubated for another 96 h under CO2 atmosphere at 37°C. After 96 h of incubation, new trypomastigote forms were collected from the supernatant and used to perform the assays.
The lysis assay was performed in 96-well plates in technical triplicates (4 concentrations within the range 4–250 μM for butanolides and 200–1,600 μM for benznidazole), and the trypomastigotes (1 x 10^6 parasites/well) were incubated in 200 μL of DMEM (supplemented with 10% FBS, 100 μg/mL streptomycin, and 100 IU/mL penicillin) with the compounds at 37°C for 4 h. The test, negative control (1% DMSO), and positive control (benznidazole) parasites were fixed and counted in Neubauer's chamber.
as §3

[7] = system: amastigotes of T. cruzi (Dm28c); set-up: method as in PMID 32327956; details: 24 h of treatment; cited from earlier work
[8] = system: epimastigote forms of strain Dm28c; assay: Inhibition of metacyclogenesis; type: cell-based; details: Trypanosoma cruzi, 2 h exposure, then 72 h in drug-free medium, p = 0.009, read-out: less trypomastigotes than control (inhibition of metacyclogenesis)
Method: After the stress, the cells were washed and incubated with TAU drug-free supplemented with 10 mM L-proline, 50 mM L-sodium glutamate, 2 mM L-sodium aspartate and 10 mM D-glucose (TAU3AAG medium) for 72 h. The total number of differentiated trypomastigotes was counted in Neubauer's chamber to assess the inhibition percentage.

Vero cells (CCL-81) = system: Vero cells (CCL-81); set-up: method as in Nunes et al., 2020; details: 24 hours of treatment; confidence interval in brackets; ref Nunes et al., 2020; read-out: Vero cells (CCL-81) CC50 (CI); cited from earlier work
[9] = system: trypomastigotes infecting Vero cells; assay: Infectivity assay (treatment before or during infection of Vero cells); type: cell-based, Trypanosoma cruzi
Method: The trypomastigotes were treated with isoobtusilactone A (LC50/4 h of trypomastigotes) for 4 h, while the control trypomastigotes were incubated with drug-free medium for 4 h. These trypomastigotes were then seeded into 96-well plates (4 × 10^4 parasites per well) with already adhered Vero cells at a ratio of 10 parasites per host cell.
After 20 h of infection, the infected Vero cell culture with intracellular amastigotes was fixed, stained with DAPI, photographed, and analyzed as described for antiproliferative assay.
Already adhered Vero cells were incubated with recently collected trypomastigotes for 4 h in a medium containing isoobtusilactone A (LC50/4 h of amastigotes) or in a drug-free medium (negative control). After 4 h, the host cells were washed and drug-free fresh medium was added. The cells were incubated for another 20 h and then fixed, stained, photographed, and analyzed as described above.

[10] = system: amastigotes and trypomastigotes; assay: Ultrastructural analysis by transmission and scanning electron microscopy; type: cell-based, Trypanosoma cruzi
Method: Trypomastigotes were incubated with isoobtusilactone A (LC50/4 h of trypomastigote) for 2 h. The parasites were washed with cacodylate buffer (0.1 M) and fixed in cacodylate buffer (0.1 M) containing paraformaldehyde (4%) and glutaraldehyde (2.5%). The cells were then adhered to glass cover slips previously coated with poly-L-lysine, postfixed with osmium tetroxide (1%), dehydrated with graded ethanol series, and dried using a critical point dryer (Leica CPD 300). Finally, the samples were coated with a layer of gold in a sputtering device (Leica EM ACE 200).
The cells were fixed, dehydrated, and dried following the same procedure described above. Cell membrane of the host cells was randomly removed with the aid of an adhesive tape and the resulting samples were coated with a layer of gold in a sputtering device (Leica EM ACE 200).
Trypomastigotes were treated following the same procedure as described for scanning microscopy. After treatment, the cells were washed with cacodylate buffer (0.1 M) and fixed in cacodylate buffer (0.1 M) containing paraformaldehyde (4%) and glutaraldehyde (2.5%).
All samples were postfixed in osmium tetroxide (1%), dehydrated with acetone series, and embedded in EMbed 812® resin. […]

trypomastigotes [11] = details: period of treatment 24 h; read-out: IC50 against trypomastigotes; cited from earlier work
amastigote forms = details: longer treatment periods; read-out: activity against amastigote forms; cited from earlier work
trypomastigotes [12] = details: concentration greater than 40 μM, exposure time of 18 hours; cited from earlier work
[13] = Vero CC50 versus amastigote IC50, 24 hours
[14] = 4 h of treatment, Na = not active
[15] = treatment simultaneous to the infection, LC50/4 h of amastigote (20.75 μM)
[16] = trypomastigotes treated before infection, LC50/4 h of trypomastigote

Molecule: CC(C)=CCCC(C)=CC=O (mixture of isomers) [Citral]
- inhibition of metacyclogenesis (T. cruzi; 30 μg/mL): 54%

Molecule: O=C(Cn1ccnc1[N+](=O)[O-])NCc1ccccc1 [Benznidazole, benznidazole, reference compound]
- IC50 [1]: > 1600 µM
- IC50 [2]: > 1600 µM
- IC50 [3]: 6.57 µM
- SI (selectivity index) [3, 13]: 174
- IC50 [4, 14]: > 1600 µM
- CC50 at 4 h (Cytotoxicity assay (MTT)): > 1600 µM
- CC50 at 24 h (Cytotoxicity assay (MTT)): 1140 µM

Molecule: CCCCCCCCCCCCC/C=C1\C(=O)O[C@@H](C)[C@H]1O [Epilitsenolide C1, epilitsenolide C1]
- IC50 [5]: 7.77 µM
- Epimastigotes (Dm28c) IC50 - 4h (CI) [4, 14]: did not show activity
- activity at concentrations below 50 μg/mL in epimastigotes [4]: exhibited activity

Molecule: C=C1OC(=O)/C(=C/CCCCCCCCCCCCC)[C@@H]1O [Isoobtusilactone A, isoobtusilactone A]
- IC50 [1]: 32.3 µM
- SI (selectivity index) ([1]; epimastigotes strain Y, 4 h, Vero cells): 11.4
- effect on tumor cells (Hep G2 cells): inducing apoptosis
- LC50 [6]: 30.1 µM
- SI (selectivity index) [6]: 12.34
- inhibition of growth of amastigote forms [7]: more than 70%
- inhibition at 2.75 µM [8]: 43%
- CC50 (Vero cells (CCL-81)): 156 µM
- IC50 [2]: 61.7 µM
- SI (selectivity index) ([2]; epimastigotes strain CL Brener, 4 h, Vero cells): 6.0
- IC50 [3]: 23 µM
- SI (selectivity index) [3, 13]: 6.81
- SI (selectivity index) ([3]; amastigotes, 4 h, Vero cells): 17.88
- activity at concentrations below 50 μg/mL in epimastigotes [4]: exhibited activity
- IC50 [4, 14]: 10.1 µM
- SI (selectivity index) [4]: 36.7
- reduction in the number of amastigotes per cell [9, 15]: 65%
- reduction in the number of infected cells [9, 15]: 43%
- reduction in the number of amastigotes per cell [9, 16]: ~40%
- reduction in the number of infected cells [9, 16]: 20%
- CC50 at 4 h (Cytotoxicity assay (MTT)): 371 µM
- ultrastructure of treated intracellular amastigotes (TEM) ([10]; LC50/4 h of amastigotes, 4 h): strong and acute damage to the unique mitochondria
- ultrastructure of treated trypomastigotes (TEM) ([10]; LC50/4 h of trypomastigote, 2 h): swelling and loss of internal content of mitochondria

Molecule: CC(C)[C@H](NC(=O)OCc1ccccc1)C(=O)N[C@H](C=O)Cc1ccccc1 [MDL28170] (Cbz-Val-Phe-aldehyde)
- inhibition of differentiation (T. cruzi; 50 μM, 96-hour treatment): ~50%

Molecule: CCCCCCCCCCCCC/C=C1\CC(CO)OC1=O (stereo not drawn) [Majoranolide, majoranolide]
- LC50 [6]: 71.7 µM
- SI (selectivity index) [6]: 7.77
- IC50 [3]: 21.9 µM
- SI (selectivity index) [3, 13]: 7.57
- activity at concentrations below 50 μg/mL in epimastigotes [4]: exhibited activity
- IC50 [4, 14]: > 250 µM
- SI (selectivity index) [4]: 0.94
- CC50 at 4 h (Cytotoxicity assay (MTT)): 558 µM
- CC50 at 24 h (Cytotoxicity assay (MTT)): 166 µM

Molecule: C=C1OC(=O)/C(=C\CCCCCCCCCCCCCCC)[C@H]1O [isolinderanolide E]
- IC50 (trypomastigotes [11]): 29.9 µM
- IC50 (amastigote forms): 10.1 µM

Molecule: Oc1ccc(/C=C/c2cc(O)cc(O)c2)cc1 [resveratrol]
- reduction of infection (trypomastigotes [12]): by half

Molecule: CCCCCCCCCCCCCCC/C=C(/C(=O)OC)[C@H](O)C(C)=O [secosubamolide A]
- IC50 (trypomastigotes [11]): 12.5 µM
- IC50 (amastigote forms): 12.3 µM

Molecule: isolinderanolide D
- IC50 (trypomastigotes [11]): 12.9 µM
- IC50 (amastigote forms): 25.3 µM
